Reference: patent US9668479B2, “Modulating germination of Paenibacillus larvae” (THE BOARD OF REGENTS OF THE NEVADA SYSTEM OF HIGHER …, priority 2013, dated 2017)

How the values were obtained:
P. larvae cells = assay: Growth of P. larvae cells in medium containing 5-chloroindole; type: cell-based, Paenibacillus larvae; conditions: 1, 1.5 and 2 mM; all time points (6, 12, 18, 24 hours); p<0.05
Experimental: FIGS. 6A-6D are graphs plotting the inhibition activity of 5-chloroindole on P. larvae cells. P. larvae cells were grown in medium containing different concentrations of 5-chloroindole, and cellular growth was monitored over a 24 hour period. Graphs are shown for 6 hours (FIG. 6A), 12 hours (FIG. 6B), 18 hours (FIG. 6C), and 24 hours (FIG. 6D). Asterisks denote significant differences from the growth of medium control (Analysis of Variance, Log-rank test, p<0.05).
5-Chloroindole was then tested in vitro, using P. larvae cells or spores. P. larvae cells were grown in medium containing different concentrations of DMSO, complex medium (MYPGP), or 0.5 to 2 mM 5-chloroindole, and cellular growth was monitored over a 24 hour period.

P. larvae spores [1] = assay: Growth from P. larvae spores in medium containing 5-chloroindole; type: cell-based, Paenibacillus larvae
Experimental: FIGS. 7A-7D are graphs plotting the inhibition activity of 5-chloroindole on P. larvae spores. P. larvae spores were grown in medium containing different concentrations of 5-chloroindole. Growth was monitored over a 24 hour period; plots are shown for 6 hours (FIG. 7A), 12 hours (FIG. 7B), 18 hours (FIG. 7C), and 24 hours (FIG. 7D). Asterisks denote significant differences from the growth of medium control (Analysis of Variance, Log-rank test, p<0.05).
P. larvae spores were grown in medium containing different concentrations of DMSO, complex medium (MYPGP), or 0.5 to 2 mM 5-chloroindole, and cellular growth was monitored over a 24 hour period.

P. larvae spores [2] = assay: Inhibition of P. larvae spore germination, IC50 titration of indole analogs (Example 2); type: cell-based, Paenibacillus larvae subsp. pulvifaciens strain ATCC 49843; conditions: Paenibacillus larvae; Table 2; saturating uric acid/L-tyrosine concentrations; read-out: IC50
Experimental: After a 15 minute incubation, the spores were treated with 3 mM L-tyrosine-3 mM uric acid. The germination rate was set to 100% for P. larvae spores germinated in the absence of inhibitor. Germination rates for other conditions were divided by the uninhibited maximum germination rate obtained with 3 mM L-tyrosine-3 mM uric acid, and are reported as percent germination. Percent germination was plotted against the inhibitor concentrations.

[3] = test system: honey bee larvae contacted with P. larvae spores; assay: Survival of honey bee larvae fed diet with indole analogs and P. larvae spores; type: in vivo
Experimental: First instar honey bee larvae were obtained from two colonies headed by naturally mated queens (Honey Bee Genetics, Vacaville Calif.). Queens were trapped on empty frames within a cage constructed with queen excluder. Worker bees can fit through the excluder but the queen cannot exit the cage. The frame was placed within the brood chamber to stimulate egg laying by the queen overnight. Eggs were incubated in the hive for 4 days to allow newly hatched larvae to be fed by nurse bees. First instar honey bee larvae were brought into the laboratory and stored in a 35° C. 85% relative humidity chamber before grafting.
Sterile six well plates with a well volume of 17.0 ml were filled with 2.5 ml of pre-warmed artificial worker jelly. Honey bee larvae were transferred into each well using the thin tongue made of flexible plastic from a Chinese grafting tool. The plastic grafting tool was decontaminated with 70% ethanol throughout usage. Grafting was performed in the sterile environment of a honey bee laboratory, and honey bee larvae were then transferred to a bacterial spore laboratory for control and spore exposure treatments.
Artificial worker jelly was prepared using a lyophilized royal jelly, D-glucose, D-fructose, yeast extract, and autoclaved double distilled water. Ingredients minus lyophilized royal jelly were dissolved in autoclaved double distilled water. Lyophilized royal jelly was added to this sugar-yeast extract solution and mixed thoroughly with a vortex mixer. Artificial diet was prepared an hour prior to use for larval rearing. To reduce the development of worker-queen hybrids because of nutrition, the composition and amounts of artificial worker jelly were controlled in every larval stage.
Honey bee larvae were incubated in an air tight plastic container placed inside an incubator. The desired relative humidity (95%) and temperature (35° C.) was verified with an iButton data logger (Maxim Integrated; San Jose, Calif.). The appropriate relative humidity was obtained by placing a solution of 20% glycerol by weight. The plastic containers were was decontaminated throughout usage with detergent, 70% ethanol, and treated with an ultraviolet lamp overnight.
Feeding of diets was performed daily in different amounts according to Table 2. The amount of diet consumed by larvae was assumed based on published literature. A micropipette was used to place a food drop next to the mouth of the larvae. Drowning was avoided by maintaining the appropriate humidity and water content of diet. Forty first and second instar larvae were placed into one well of a six well plate. Third instar larvae were transferred individually to 48 well plates filled with fresh food.
Larval survival was determined daily by observing signs of respiration, disease symptoms, and other abnormalities with a stereo microscope. The number of dead larvae was recorded, and surviving larvae were fed fresh food. The start of pupation was indicated by the appearance of uric acid crystals and light yellow excretions in the remaining food.
The larval survival data was analyzed using the LogRank test in SigmaPlot.

In the case of `Clc1ccc2[nH]ccc2c1` [5-chloroindole], the “inhibition of P. larvae cell growth vs medium control” value (P. larvae cells) is reported as “significantly inhibited”, the “effect on growth from P. larvae spores vs medium control, 6 hours” value (P. larvae spores [1]; 0.5 to 2 mM, 6 hours) is reported as “no significant effect” and the “effect on growth from P. larvae spores vs medium control, 18 and 24 hours” value (P. larvae spores [1]; all concentrations (0.5 to 2 mM), 18 and 24 hours, p<0.05) is reported as “significantly inhibited”. The IC50 (P. larvae spores [2]) was 30 ± 10 µM, the “concentration dependence of increase in larval survival” value ([3]; 0.125 mM to 1 mM in larval diet (wj) plus P. larvae spores, p<0.001) was “directly correlated to its concentration” and the “ranking of effect on larval survival among analogs” value ([3]; 0.5 mM in larval diet (wj) plus P. larvae spores) was “greatest effect”. The “survival of honey bee larvae vs P. larvae spores alone” value ([3]; 0.5 mM in larval diet (wj) plus P. larvae spores, 7-day development, p<0.002) was “increased survival”.
